Entries after “also recorded” stand apart in the source; their conditions may differ. Where two headings read alike, the source gives them in different places. Where a SMILES comes first, the peptide text is derived from it. Primed or numbered codes have the meaning given here. Where no end group is shown, it is not given here. The star is where a group is joined. X1 = O=C(O)CN1CCN(CC(=O)O)CCN(C(CCC(=O)NCCN2C(=O)CC(*)C2=O)C(=O)O)CC1; NODAGA′ = NODAGA chelator (maleimide-conjugated) for radiolabelling; Alexa 488 = Alexa Fluor 488 fluorescent dye
Legend:
PC-3 xenografts [1] = tested on: PC-3 xenografts
Method: (§1) PC-3 cells (human prostate carcinoma cell line, ACC-465, DSMZ, Braunschweig, Germany) were cultured in Roswell Park Memorial Institute 1640 medium (Amimed, Bioconcept, Switzerland). Cells were cultured as monolayers at 37° C. in a humidified atmosphere containing 5% CO2.
(§2) In vivo experiments were approved by the local veterinarian department and conducted in accordance with the Swiss law for animal protection. The 3-5 weeks-old female CD1 nude mice were purchased from Charles River (Germany). After 5-7 days acclimatisation period, the tumor cells were subcutaneously inoculated in both shoulders of the mice (3*106-1*107 cells in 100-150 μL PBS per side). Experiments were performed 3-4 weeks after inoculation.
SPECT/CT experiments were performed using a 4-head multiplexing multipinhole camera (NanoSPECT/CTplus, Bioscan Inc., Washington D.C., USA). CT scans were performed with a tube voltage of 45 kV and a tube current of […]. SPECT scans at 24, 72 and 96 hours post injection were obtained with an acquisition time of 20-90 sec. per view resulting in a total scanning time of 20-45 min per mouse.
The distribution of ^111In-radiolabeled FnBPA5 peptide injected into the tail vein of a living mouse was monitored by means of SPECT/CT for a period of 96 hours. […] (2.4 nmol, 100 μL PBS) into the tail vein. […] SPECT images were reconstructed using HiSPECT software (Scivis GmbH, Goettingen, Germany). The images were reconstituted and processed with InVivoScope® software (BioscanInc., Washington D.C., USA) and zoom in videos were generated using Adobe Flash.
To visualize additional binding of the tracer to tissues throughout the body, the kidneys were subsequently removed from the sacrificed mice and the scan was repeated.

PC-3 xenografts [2] = experiment: In vivo blocking study with pre-injected unlabeled FnBPA5; parameters: species or system mouse; conditions: for effect of pre-injection of unlabeled FnBPA5 on accumulation: approximately 10-fold excess unlabeled FnBPA5, 4 hour post-injection
Method: (A) Biodistribution of FnBPA5 in PC-3 bearing mice was monitored at different time points in various organs. […] (C) Blocking studies were performed and uptake was analyzed 4 hour post-injection.
(§3) The tissue-specific peptide pharmacokinetics, particularly in cancer stroma, were assessed in groups of 4 PC-3-bearing mice that were injected with approximately 150 kBq ^111In-FnBPA5 respectively ^111In-scraFnBPA5 (2.4 nmol/[…] PBS) into the tail vein and biodistribution of peptides was analyzed at different time points (1, 4, 24 and 96 hours post injection (p.i. and after sacrification)) by means of percentage of injected activity per gram tissue (% IA/g).

[3] = Method: To assess in vitro plasma stability 12 MBq ^111In-[FnBPA5-NODAGA] and ^111In-[scraFnBPA5-NODAGA] were incubated with 400 μL human blood plasma at 37° C. At different time points (0, 0.25, 0.5, 1, 2, 48 and 72 hours) 40 μL of plasma was taken out and precipitated by the addition of 200 μL EtOH, acetonitrile, 0.1% TFA.
in vivo = conditions: female, CD1 nude, mouse, iv, 150 kBq, total radioactivity
Method: as §1, §2, §3

soluble plasma Fn = experiment: Fluorescence anisotropy titration (fluorescence polarization); type: binding, human; conditions: 100 nM Alexa-488 peptide in PBS, Fn 0 to 1.4 μM, 20° C.; read-out: dissociation constant Kd to soluble plasma Fn
Sequence of soluble plasma Fn (P02751 32-290 limits assumed): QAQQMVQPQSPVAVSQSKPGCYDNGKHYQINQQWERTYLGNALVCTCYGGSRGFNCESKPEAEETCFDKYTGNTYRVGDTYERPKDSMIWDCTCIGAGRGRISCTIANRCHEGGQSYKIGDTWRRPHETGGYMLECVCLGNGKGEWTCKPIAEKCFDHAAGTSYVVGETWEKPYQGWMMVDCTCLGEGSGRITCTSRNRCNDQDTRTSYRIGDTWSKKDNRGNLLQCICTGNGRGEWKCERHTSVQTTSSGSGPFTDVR
Method: The binding affinities of Fn to FnBPA5 were determined in three independent measurements by anisotropy titrations in a Cary Eclipse Fluorescence Spectrophotometer (Agilent Technologies) equipped with automated polarizers. FnBPA5 and its scrambled derivative were synthesized with an N-terminal Alexa-488 dye. The anisotropy of 100 nM Alexa-488 labelled peptide was measured in PBS at Fn concentrations ranging from 0 to 1.4 μM. Excitation and emission were at λex 480 nm and λem 520 nm respectively with both slit 10 nm, 20° C., 5 s signal acquisition and g=1.4. The Kd values were determined by fitting the data to a one-site-binding model using Origin 7 (OriginLab Northampton, Mass., USA).
With higher Fn concentration an increasing amount of peptide is bound to Fn leading to a shift in fluorescence anisotropy.

[4] = tested on: fibrillar Fn in fibroblast ECM; experiment: Binding to fibrillar Fn in fibroblast-assembled ECM (colocalization); type: cell-based; conditions: normal human dermal fibroblasts, 2 days ECM, 5 μg/ml peptide, 1 hour
Sequence of fibrillar Fn in fibroblast ECM (P02751 32-290 limits assumed): as above
Method: Fibroblast ECM samples (FIG. 2C) were acquired with the same microscope using an oil immersion 1.45 NA 60× objective with a pixel resolution of 1024×1024.
To achieve this, normal human dermal fibroblasts (PromoCell, Heidelberg, Germany) were cultured in alpha minimum essential medium (α-MEM) with 10% fetal bovine serum (FBS) from BioWest, Nuaillé, France, and split before reaching confluence. Cells were seeded onto Fn-coated 8-well chambered coverglasses (Lab-Tek, Nalgene Nunc, Thermo Scientific, Waltham, Mass., USA) at a density of 30×10^3 cells per cm^2 and allowed to attach to the surface before medium exchange to medium containing 50 μg/ml unlabeled Fn. Cells were cultured for 48 hours. Fibronectin was then stained using a rabbit polyclonal anti-fibronectin antibody (ab23750, abcam, Cambridge, UK) and 5 μg/ml FnBPA5-Alexa488 respectively scr-FnBPA5-Alexa488 peptide for 1 hour before fixation with a 4% paraformaldehyde solution in PBS. After fixation cells were permeabilized for 10 minutes with PBS containing 0.01% Triton X-100. After a washing step samples were blocked in 4% BSA and 4% donkey serum for 1 hour at room temperature. Samples were then incubated for 1 hour with a donkey anti-rabbit Alexa 546 (Invitrogen) secondary antibody and Phalloidin-633 (Invitrogen, Carlsbad, Calif., USA). Before imaging cell nuclei were stained using DAPI. […]

N-terminal Fn fragments = N-terminal Fn fragments (Homo sapiens, UniProt P02751); conditions: literature value, Meenan et al. 2007; read-out: Kd to N-terminal Fn fragments in solution; cited from earlier work
Sequence of N-terminal Fn fragments (P02751 52-272 limits assumed): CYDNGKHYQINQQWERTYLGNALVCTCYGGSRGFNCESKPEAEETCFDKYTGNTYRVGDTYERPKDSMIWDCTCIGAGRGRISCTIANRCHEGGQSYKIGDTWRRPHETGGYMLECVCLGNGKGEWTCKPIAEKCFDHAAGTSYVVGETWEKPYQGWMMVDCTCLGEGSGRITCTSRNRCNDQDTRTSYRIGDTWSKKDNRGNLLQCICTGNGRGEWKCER

[5] = tested on: manually pulled relaxed Fn fibers (fibrillar Fn); experiment: Manually pulled Fn fiber binding assay (confocal microscopy); parameters: species or system human; conditions: for binding to manually pulled Fn fibers (peptide signal): confocal microscopy, peptide signal vs Fn-Cy5
Sequence of manually pulled relaxed Fn fibers (fibrillar Fn) (P02751 32-290 limits assumed): as the sequence (P02751 32-290 limits assumed) above
Text: Manually pulled Fn fibers were used as a model system for fibrillar Fn as described previously (W. C. Little, M. L. Smith, U. Ebneter, and V. Vogel, “Assay to mechanically tune and optically probe fibrillar fibronectin conformations from fully relaxed to breakage,” Matrix Biology, vol. 27, no. 5, pp. 451-461, June 2008). Fibers containing 5% of photolabeled Fn-Cy5 were deposited onto a stretchable silicone sheet, relaxed to half of their original length, corresponding to a total 7% molecular strain and after a blocking step with 4% bovine serum albumin in PBS, they were incubated with different concentrations of Alexa488 fluorescently labeled FnBPA5 to obtain a binding curve.
Manually pulled Fn fiber samples were imaged with an Olympus FV1000 confocal microscope using a 40× water immersion objective with a numerical aperture of 0.9. Alexa488-FnBPA5 and Fn-Cy5 channels were imaged with a 512×512 pixel resolution and photomultiplier tube voltage and laser powers were kept constant within an experiment.
Images were analyzed using Fiji-ImageJ and Matlab (MathWorks, Natick, Mass., USA). […] Dark current values were subtracted from images and pixels with intensities below a cutoff threshold and at saturation were excluded from analysis. Approximately 10 fibers were imaged per experimental condition and each of these conditions was done in triplicate. […] Data points were fit using the Hill model assuming non-cooperative binding (using the below equation) and plot using Origin.
To assess binding constant of Alexa488-FnBPA5 and of its scrambled analogue to Fn fibers a fiber stretch assay as described above and before (Little et al., Matrix Biology, vol. 27, no. 5, pp. 451-461, June 2008) was used. Fn fibers are manually pulled from a Fn solution containing 5% fluorophore labeled Fn and deposited onto a silicone membrane. Silicone membranes can then be stretched or relaxed to desired mechanical strain state.
Peptide fluorescence intensity normalized against the Cy5-intensity from the Fn-fibers for different peptide concentrations was assessed. Intensity ratio of 10 μM FnBPA5-488 was defined as saturated and all other intensity ratios were normalized with this factor.

relaxed Fn fibers = experiment: Displacement assay on manually pulled Fn fibers against FnBPA5-Alexa488; type: binding, human; conditions: cold labeled competitor
Sequence of relaxed Fn fibers (P02751 95-273 limits assumed): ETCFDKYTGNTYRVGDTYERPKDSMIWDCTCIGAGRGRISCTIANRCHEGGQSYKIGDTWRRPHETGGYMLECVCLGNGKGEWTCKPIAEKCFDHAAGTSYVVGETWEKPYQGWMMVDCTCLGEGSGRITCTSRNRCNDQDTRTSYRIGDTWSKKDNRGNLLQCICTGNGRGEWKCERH
Method: Relaxed Fn fibers were incubated with FnBPA5-Alexa488 peptide, washed and then incubated with different concentrations of FnBPA5-In to measure the concentration of competitor.
To assess whether the presence of the chelator for the radiolabeled ^111In-isotope impairs FnBPA5 binding to manually pulled Fn fibers, a displacement assay was performed using ^natIn-FnBPA5 (cold labeled) against FnBPA5-Alexa488.

[6] = 96 hours post injection, 12 MBq, tail vein
[7] = 96 hours post injection, kidneys removed

| Compound | SPECT/CT kidney uptake (PC-3 xenografts [1]; [6]) | SPECT/CT uptake in other organs after kidney removal (PC-3 xenografts [1]; [7]) | effect of pre-injection of unlabeled FnBPA5 on accumulation (PC-3 xenografts [2]) | SPECT/CT kidney uptake (PC-3 xenografts [1]; mouse, in vivo) | SPECT/CT uptake in other organs after kidney removal (PC-3 xenografts [1]; mouse, in vivo) | Kd (soluble plasma Fn) [nM] | binding to fibrillar Fn in fibroblast ECM [4] | binding to manually pulled Fn fibers (peptide signal) [5] | further results |
| --- | --- | --- | --- | --- | --- | --- | --- | --- | --- |
| CC[C@H](C)[C@H](NC(=O)CNC(=O)[C@H](CCCCN)NC(=O)[C@@H](NC(=O)[C@H](CO)NC(=O)[C@H](CCC(=O)O)NC(=O)[C@H](CCC(=O)O)NC(=O)[C@H](CC(=O)O)NC(=O)[C@H](Cc1ccccc1)NC(=O)[C@H](CCC(=O)O)NC(=O)[C@@H](NC(=O)[C@H](CC(C)C)NC(=O)[C@H](CC(N)=O)NC(=O)[C@H](CO)NC(=O)[C@H](CCC(=O)O)NC(=O)[C@@H](NC(=O)[C@@H](NC(=O)[C@@H](NC(=O)[C@H](CCC(N)=O)NC(=O)CNC(=O)CNC(=O)CNC(=O)[C@@H](N)CSC1CC(=O)N(CCNC(=O)CCC(C(=O)O)N2CCN(CC(=O)O)CCN(CC(=O)O)CC2)C1=O)C(C)C)[C@@H](C)O)[C@@H](C)O)C(C)C)[C@@H](C)O)C(=O)N[C@H](C(=O)N[C@H](C(=O)NCC(=O)N[C@@H](C)C(=O)N[C@H](C(=O)N[C@@H](CO)C(=O)N[C@@H](CC(=O)O)C(=O)N[C@@H](Cc1c[nH]cn1)C(=O)N[C@H](C(=O)N[C@H](C(=O)N[C@H](C(=O)N[C@@H](CCC(=O)O)C(=O)N[C@@H](CC(=O)O)C(=O)N[C@H](C(=O)N[C@@H](CCCCN)C(=O)O)[C@@H](C)O)C(C)C)[C@@H](C)O)[C@@H](C)O)C(C)C)[C@@H](C)O)C(C)C (stereo partly drawn) [^111In-FnBPA5, metal not drawn] (H-C(X1)GGGQVTTESNLVEFDEESTKGIVTGAVSDHTTVEDTK-OH; N-terminus and C-terminus assumed) | mainly accumulated in the kidneys | predominant uptake in tumor and liver | significant reduction in the uptake of ^111In-FnBPA5 in both liver and tumor |  |  |  |  |  | uptake decrease in liver by blocking (PC-3 xenografts [2]; pre-injection of 100 μg unlabeled FnBPA5, 4 hour post-injection, liver): 58.2%; uptake decrease in tumor tissue by blocking (PC-3 xenografts [2]; pre-injection of 100 μg unlabeled FnBPA5, 4 hour post-injection, tumor): 35.6%; plasma stability, peptide intact ([3]; human blood plasma, 37° C., after 72 hours): still intact; tissue uptake at 1 h (in vivo; kidney accumulation, kidneys, 1 hour p.i. (maximum)): 141 ± 18.1 %ID/g; tissue uptake at 1 h (in vivo; tumor uptake, PC-3 tumor, 1 h p.i. (maximum)): 4.74 ± 0.77 %ID/g |
| CC[C@H](C)[C@H](NC(=O)[C@@H](NC(=O)[C@H](CCC(=O)O)NC(=O)CNC(=O)[C@H](Cc1ccccc1)NC(=O)[C@H](CC(=O)O)NC(=O)[C@@H](NC(=O)[C@H](CCCCN)NC(=O)[C@@H](NC(=O)CNC(=O)[C@@H](NC(=O)[C@H](CC(C)C)NC(=O)[C@H](CC(=O)O)NC(=O)[C@H](CCC(=O)O)NC(=O)[C@H](CCC(N)=O)NC(=O)[C@H](CCC(=O)O)NC(=O)[C@H](CO)NC(=O)CNC(=O)[C@@H](N)CSC1CC(=O)N(CCNC(=O)CCC(C(=O)O)N2CCN(CC(=O)O)CCN(CC(=O)O)CC2)C1=O)[C@@H](C)O)[C@@H](C)O)C(C)C)[C@@H](C)O)C(=O)N[C@H](C(=O)N[C@H](C(=O)N[C@@H](CC(N)=O)C(=O)N[C@@H](CCC(=O)O)C(=O)N[C@@H](C)C(=O)N[C@H](C(=O)N[C@@H](CCC(=O)O)C(=O)N[C@H](C(=O)N[C@H](C(=O)N[C@H](C(=O)N[C@@H](CO)C(=O)NCC(=O)N[C@@H](CO)C(=O)N[C@H](C(=O)N[C@@H](Cc1c[nH]cn1)C(=O)NCC(=O)N[C@H](C(=O)N[C@@H](CCCCN)C(=O)N[C@H](C(=O)O)C(C)C)[C@@H](C)O)[C@@H](C)O)[C@@H](C)O)C(C)C)[C@@H](C)O)[C@@H](C)O)C(C)C)C(C)C (stereo partly drawn) [^111In-scraFnBPA5, metal not drawn, reference compound] (H-C(X1)GSEQEDLTGTKVDFGETIVVNEATETVTSGSTHGTKV-OH; N-terminus and C-terminus assumed) |  |  | no significant differences | mainly accumulated in the kidneys | no uptake into other tissues was visible |  |  |  | tissue uptake at 1 h (in vivo; kidney accumulation): 164 ± 18.9 %ID/g |
| Alexa 488-FnBPA5: FnBPA5 with N-terminal Alexa-488 dye ({Alexa 488}-CGGGQVTTESNLVEFDEESTKGIVTGAVSDHTTVEDTK) |  |  |  |  |  | 75 |  |  |  |
| CGGGQVTTESNLVEFDEESTKGIVTGAVSDHTTVEDTK [FnBPA5] | dominant kidney uptake | uptake in tumors and liver |  |  |  | 75 | specific binding | specific peptide binding; also recorded: significantly higher binding; also recorded: much stronger than the scrambled control derivative | plasma stability ([3]; 37° C., blood plasma and water, 1 hour time point): high stability; Kd (N-terminal Fn fragments): 44.2 nM; Kd ([5]; relaxed fibers, 7% molecular strain, Alexa488-labelled peptide, Hill fit, read-out: dissociation constant Kd to manually pulled relaxed Fn fibers): 28 nM |
| ^natIn-FnBPA5: Cold labeled (natural indium) chelator-conjugated FnBPA5 (C(NODAGA′)GGGQVTTESNLVEFDEESTKGIVTGAVSDHTTVEDTK; also: natural indium complexed by chelator) |  |  |  |  |  |  |  |  | IC50 (relaxed Fn fibers): 49 nM |
| scraFnBPA5: Negative control of FnBPA5 with scrambled sequence (SEQ ID NO 296) (CGSEQEDLTGTKVDFGETIVVNEATETVTSGSTHGTKV) [reference compound] |  |  |  | dominant kidney uptake | does not show any specific uptake in other organs |  | unspecificly attached to the matrix | within the background noise | plasma stability [3]: high stability |
